According to patent publication US5151502A, “Method for solubilizing membrane receptor proteins” (E. R. Squibb & Sons, Inc., priority 1991, dated 1992):
Blank lines part the entries; values can stand above or below the compound they belong to.

What was measured:
soluble AII receptor = molecular target: T1, soluble AII receptor (Bos taurus, UniProt P25104); test: [125I]-SI-AII radioligand binding, CHAPS-solubilized SM2-treated BAMM; set-up: species or system bovine; conditions: for Inhibition of [125I]-SI-AII binding (in words): competition experiments
T1 construct: from tissue; host or cells: bovine adrenal microsomal membranes, solubilized with CHAPS and treated with SM2 beads
T1 sequence (P25104 1-359): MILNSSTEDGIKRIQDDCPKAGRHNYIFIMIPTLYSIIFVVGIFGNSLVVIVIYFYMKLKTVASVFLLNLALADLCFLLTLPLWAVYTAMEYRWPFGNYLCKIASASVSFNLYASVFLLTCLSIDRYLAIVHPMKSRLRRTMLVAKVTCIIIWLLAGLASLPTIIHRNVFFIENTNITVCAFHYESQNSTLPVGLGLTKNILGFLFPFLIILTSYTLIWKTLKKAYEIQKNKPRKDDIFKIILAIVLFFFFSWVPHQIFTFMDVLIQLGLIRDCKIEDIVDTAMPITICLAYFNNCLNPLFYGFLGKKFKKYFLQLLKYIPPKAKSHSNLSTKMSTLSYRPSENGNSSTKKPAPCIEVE
Method: (§1) All procedures were performed at 4° C. unless otherwise noted. Solubilization of specific binding activity was carried out by incubation of BAMM with 5 mM CHAPS. […] The solubilized membranes were centrifuged at 176,000×g (50,000 rpm in a Beckman 80Ti rotor) for 1 hour. The soluble BAMM preparation was stored at […] Prior to assay, soluble BAMM protein was filtered through a 0.22 μm filter and treated with SM2 beads. SM2 treatment proceeded with the addition of 1.1 g (w/v) of the beads and incubation for 1 to 2 hours with constant rotation. The beads were, removed under air pressure. Residual beads were removed from solution by microcentrifugation at 11,000×g (14,000 rpm.) for 15 minutes.
Assays were conducted in 1.2 ml tubes in a total assay volume of 200 μl. The incubation mixture contained 0.1 to 0.2 nM [^125 I]-SI-AII and incubation buffer (50 mM Tris, pH 7.4 at 4° C., 150 mM sodium chloride, 0.1% bovine serum albumin, 0.24 TI units/ml aprotinin, 0.1 mg/ml 1,10-phenanthroline). The binding reaction was initiated by the addition of 20 to 100 μg of BAMM or soluble BAMM diluted in incubation buffer. Binding proceeded at 37° C. for 2 hours with constant agitation. Reactions were terminated and bound and free radioligand separated by rapid filtration over double-thickness glass-fiber filters which had been presoaked in 0.3% polyethyleneimine in 50 mM Tris (pH 7.4) utilizing a Tomtec™96-well cell harvester set at four pulse washes. Filters were counted in a RIASTAT gamma counter or washed twice, microwave-dried, and counted in a Pharmacia 1205 Beta Plate flatbed scintillation counter in the presence of a dry scintillant (Pharmacia MeltiLex Scintillator Sheets™). Dissociation constants and slope factors were calculated according to Cheng and Prusoff (Biochem. Pharmacol. 22, 3099-3109; 1973) and Hill (J. Physiol. 40, 109-224; 1910), respectively. analysis of saturation binding data was performed using nonlinear regression least-square curve fitting to the nontransformed data or by Scathard transformation (Ann. N.Y.Acad. Sci., 51, 660672;1949).

AII receptor = test: Recovery of solubilized [125I]-SI-AII binding activity from BAMM; set-up: species or system bovine; conditions: DTNB 0.1 mM added to BAMM before solubilization; means ± standard errors, n = 4
Method: as §1
Assays were conducted in 1.2 ml tubes in a total assay volume of 200 μl. […] Filters were counted in a RIASTAT gamma counter or washed twice, microwave-dried, and counted in a Pharmacia 1205 Beta Plate flatbed scintillation counter in the presence of a dry scintillant (Pharmacia MeltiLex Scintillator Sheets™). Dissociation constants and slope factors were calculated according to Cheng and Prusoff (Biochem. Pharmacol. 22, 3099-3109; 1973) and Hill (J. Physiol. 40, 109-224; 1910), respectively. analysis of saturation binding data was performed using nonlinear regression least-square curve fitting to the nontransformed data or by Scathard transformation (Ann. N.Y.Acad. Sci., 51, 660672;1949).

membrane AII receptor = molecular target: T2, membrane AII receptor (Bos taurus, UniProt P25104); test: [125I]-SI-AII radioligand binding, bovine adrenal microsomal membranes (BAMM)
T2 construct: Aliquots (5 mg/ml) of the bovine adrenal microsomal membranes (BAMM) were stored; from tissue; host or cells: bovine adrenal, microsomal membranes
T2 sequence (P25104 1-359): T1 sequence (P25104 1-359)
Method: All the procedures were performed at 4° C. unless otherwise indicated. Bovine adrenals were cleaned of connective tissue and fat and were minced in 10 volumes of homogenization buffer (10 mM Tris, pH 7.4 at 4° C. containing 0.25M sucrose and 1 mM ethylenediaminetetraacetic acid). The minced tissue was homogenized using a Brinkmann polytron homogenizer (five ten second bursts at setting #8). The homogenate was centrifuged at 3,000×g (5,000 rpm) in a Sorvall SS34 rotor) for 10 minutes and the supernatant filtered through 3 layers of cheesecloth. The filtrate was centrifuged at 12,000×g (10,000 rpm in a Sorvall SS34 rotor) for 15 minutes. […]

inhibition at 5000 µM (soluble AII receptor): ~90% | IC50 (soluble AII receptor; read-out: DTT concentration giving 50% reduction in ligand activity): 500 to 1000 µM
SMILES: O[C@H](CS)[C@H](O)CS (racemic) [DTT, dithiothreitol]

% recovery of solubilized AII receptor (AII receptor): 11.5 ± 1.5%
SMILES: O=C(O)c1cc(SSc2ccc([N+](=O)[O-])c(C(=O)O)c2)ccc1[N+](=O)[O-] [DTNB, dithionitrobenzoic acid]

Kd (membrane AII receptor): 0.202 ± 0.022 µM | Slope Factor (membrane AII receptor; BAMM, means ± SEM, n = 3 to 5): 0.91 ± 0.03 | Kd (soluble AII receptor): 2.54 µM | Inhibition of [125I]-SI-AII binding (in words) (soluble AII receptor; SM2-treated soluble receptors): complete | Slope Factor (soluble AII receptor; Soluble preparation, means ± SEM, n = 3 to 5): 0.51 ± 0.05
SMILES: CCCCc1nc(Cl)c(CO)n1Cc1ccc(-c2ccccc2-c2nn[nH]n2)cc1 [DuP 753]

Inhibition of [125I]-SI-AII binding (in words) (soluble AII receptor; SM2-treated soluble receptors): negligible | Ki (soluble AII receptor; SM2-treated soluble receptors, read-out: inhibition constant): > 100 µM
SMILES: Cc1cc(Cn2cnc3c2CC(C(=O)O)N(C(=O)C(c2ccccc2)c2ccccc2)C3)ccc1N (stereo not shown) [PD123177]
